{"source": "patent US20070031507A1", "about": "“Bactericide for MRSA” (priority 2001, published 2007)", "tested_on": "MRSA (methicillin resistant Staphylococcus aureus)", "assay": "Antibacterial test: survival ratio of MRSA versus cultivation time in medium", "type": "cell-based", "conditions": "physiological saline, dilution 10^-3, pH 12.7", "method": "Antibacterial tests were then performed. The relation between the cultivation time (minute) of MRSA in a cultivation medium and the survival ratio (%) of the bacteria was measured in the test shown in Table 1. The cultivation media of MRSA were physiological saline ([…]), physiological saline containing the bactericide for MRSA of the invention ([…]) and physiological saline containing a reagent NaOH (medium 3). The degree of dilution of both the bactericide for MRSA and the reagent (NaOH) was 10^−3, and pH of both solutions was 12.7."}
{"compound": "[Na+].[OH-]", "note": "[Medium 3, NaOH]", "values": [{"measurement": "survival ratio of the bacteria", "setting": "cultivation time 0 minutes", "result": 100, "unit": "%"}, {"measurement": "survival ratio of the bacteria", "setting": "cultivation time 15 minutes", "result": "Measurement was impossible"}, {"measurement": "survival ratio of the bacteria", "setting": "cultivation time 30 minutes", "result": 0.0057, "unit": "%"}]}
